The values below come from article PMC13039201 (Scientific Reports, 2026).

Series [1] addresses HA captured from plasma (ACLF patients, CTRL) (Homo sapiens, UniProt P02768). It is filed as binding. Particulars: ACLF n = 6 vs CTRL n = 6, Student's t-test on KD values.
Series [2] has as its target Human serum albumin (HA), commercial HA (Homo sapiens, UniProt P02768).
A further series concerns anti-HA antibody. Briefly: SPR injection on the bare anti-HA sensor chip without any immobilized HA. The series is classed as binding, rabbits.
A further series addresses HA. Particulars: read-out: KD reported in the literature; cited from earlier work.
For series [3], the target named is HA captured from plasma (T2DM-DKD, T2DM+DKD) (Homo sapiens, UniProt P02768). It is filed as binding. The following applies: n = 10 each, KD values.
Chain of HA captured from plasma (T2DM-DKD, T2DM+DKD) (P02768 25-609): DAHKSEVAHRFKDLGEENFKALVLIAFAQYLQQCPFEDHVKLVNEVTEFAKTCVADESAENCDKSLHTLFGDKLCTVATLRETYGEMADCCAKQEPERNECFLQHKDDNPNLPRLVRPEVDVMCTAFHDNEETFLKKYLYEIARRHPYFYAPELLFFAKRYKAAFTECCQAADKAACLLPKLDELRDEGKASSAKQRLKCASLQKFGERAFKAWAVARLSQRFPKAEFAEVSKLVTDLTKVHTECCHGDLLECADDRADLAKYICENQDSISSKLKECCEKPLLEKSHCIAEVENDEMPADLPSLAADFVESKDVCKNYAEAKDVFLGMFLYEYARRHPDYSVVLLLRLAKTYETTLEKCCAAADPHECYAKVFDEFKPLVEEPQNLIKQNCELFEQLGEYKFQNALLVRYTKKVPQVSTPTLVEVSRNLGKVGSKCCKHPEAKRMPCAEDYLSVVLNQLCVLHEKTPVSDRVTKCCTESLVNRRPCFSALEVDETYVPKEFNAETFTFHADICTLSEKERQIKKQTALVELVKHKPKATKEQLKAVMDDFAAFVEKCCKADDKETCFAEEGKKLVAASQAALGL

Where two headings read alike, the source gives them in different places.

Chain of Human serum albumin (HA), commercial HA (P02768 25-609): as above
Chain of HA captured from plasma (ACLF patients, CTRL) (P02768 25-609): as above

One may read the Kd as the equilibrium constant for the complex coming apart. Regarding `C=CC1=C(C)/C(=C/C2=NC(=C\c3[nH]c(/C=C4\NC(=O)C(C)=C4C=C)c(C)c3CCC(=O)O)/C(CCC(=O)O)=C2C)NC1=O` [BVD, biliverdin], the “affinity of HA from ACLF patients compared with HA from CTRL subjects” value (“affinity … compared with HA from CTRL subjects” below) in series [1] is given as “no significant differences”. The compound also yielded a Kd in series [2] of 13 ± 3 µM. Moreover, in the series with anti-HA antibody, the “interactions with the anti-HA antibody” value is recorded as “significant interactions”.

Take `CN(C)c1cccc2c(S(=O)(=O)N[C@@H](Cc3ccccc3)C(=O)O)cccc12` [DPA, dansyl-L-phenylalanine]: the dissociation constant (Kd) at HA is 6 µM; in series [2] (commercial HA captured on chip, steady state 1:1 model, 25 °C, validation), 1.7 ± 0.3 µM. Also, in series [1], the “affinity … compared with HA from CTRL subjects” value was “no significant differences”.

Take `CCCCC1C(=O)N(c2ccccc2)N(c2ccccc2)C1=O` [PBZ, phenylbutazone]: the equilibrium dissociation constant (Kd) on HA is 0.12 to 3.3 µM.

Consider `COc1ccc2c3c1O[C@H]1C[C@@H](O)C=C[C@@]31CCN(C)C2` [galantamine], for which the “interaction with HA (negative control)” value in series [2] (0.370-30.0 µM, 10 µL/min, 60 s) is “no interaction”.

For the compound teicoplanin, the “affinity … compared with HA from CTRL subjects” value in series [1] is “reduced its binding affinity”. Besides, the “binding capacity of HA in T2DM + DKD patients compared with T2DM-DKD” value in series [3] was “did not significantly affect”.
